Results from patent US20070225492A1 (priority 2004, published 2007).
Counter-ions that a name gives are not always drawn.

Row | Structure (SMILES) | melting point [°C]
1 | CCC(=O)N1CC2CC(C1)N2C/C=C(\C)c1ccccc1 (as salt: hydrochloride) | 123 to 125
2 | CCC(=O)N1CC2CC(C1)N2C/C=C(\CC)c1ccccc1 (as salt: hydrochloride) | 160 to 163
